The source of these data is BindingDB's records for doi:10.1124/jpet.104.079301 (University of Li&Eagrove;Ge, 2005).

This assay addresses Thromboxane A2 receptor (Homo sapiens, UniProt P21731).

Broadly, the Ki is the dissociation constant of the complex between target and ligand, obtained from inhibition or displacement. Low values mean tighter binding, high ones weaker binding.

Sequence of Thromboxane A2 receptor (P21731 as listed by the source): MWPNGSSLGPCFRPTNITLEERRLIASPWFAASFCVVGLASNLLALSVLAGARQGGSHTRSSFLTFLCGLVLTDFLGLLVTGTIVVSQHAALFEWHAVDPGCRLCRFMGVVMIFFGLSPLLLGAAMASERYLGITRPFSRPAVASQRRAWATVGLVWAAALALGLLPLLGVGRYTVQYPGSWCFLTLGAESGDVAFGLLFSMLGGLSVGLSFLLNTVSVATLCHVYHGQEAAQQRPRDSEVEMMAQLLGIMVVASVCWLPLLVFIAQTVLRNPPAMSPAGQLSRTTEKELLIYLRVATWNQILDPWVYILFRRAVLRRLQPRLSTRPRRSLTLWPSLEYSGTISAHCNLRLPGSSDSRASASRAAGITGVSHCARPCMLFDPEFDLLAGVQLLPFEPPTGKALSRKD

On to `CCCCCNC(=O)NS(=O)(=O)c1cc([N+](=O)[O-])ccc1Nc1ccc(C)cc1`, for which affinity was put at a Ki of 3.1 nM.

In turn, `Cc1ccc(Nc2ccc([N+](=O)[O-])cc2S(=O)(=O)NC(=O)NC(C)(C)C)cc1` [BM 573] gave a Ki of 0.8 nM.
